One assay deals with THP-1 cells. The experiment in a line: TNF-alpha production by macrophages (ELISA). The class given is cell-based, human. To be noted: 1 mg/mL opsonized zymosan, 24 hours, n=4, FIG. 8, read-out: IC50 TNFα production. The procedure: The human macrophage cell line, THP-1 is plated in a 12 well plate such that each well contains 1×10^6 cells in 2 mL of media containing 10% FCS. Opsonized zymosan is prepared by resuspending 20 mg of zymosan A in 2 mL of ddH2O and homogenizing until a uniform suspension is obtained. Homogenized zymosan is pelleted at 250 g and resuspended in 4 mL of human serum for a final concentration of 5 mg/mL. and incubated in a 37° C. water bath for 20 minutes to enable opsonization. Bay 11-7082 is prepared in DMSO at a concentration of 10^−2 M and serially diluted 10-fold to give a range of stock concentrations (10^−8 M to 10^−2 M) (J. Immunol. (2000) 165: 411-418; J. Immunol. (2000) 164: 4804-4811; J. Immunol. Meth. (2000) 235 (1-2): 33-40).
THP-1 cells are stimulated to produce TNFα by the addition of 1 mg/mL opsonized zymosan. […]
After a 24 hour stimulation, supernatants are collected to quantify TNFα production. TNFα concentrations in the supernatants are determined by ELISA using recombinant human TNFα to obtain a standard curve. […] The dilution of Capture Antibody used is lot-specific and is determined empirically. […] Stop Solution (2 NH2SO4) is then added to the wells and a yellow colour reaction is read at 450 nm with λ correction at 570 nm. Mean absorbance is determined from triplicate data readings and the mean background is subtracted. […]
(In general: An ELISA detects its analyte on a solid surface through an enzyme-linked reagent.)

A further assay concerns human fibroblasts. The experiment in a line: Screening assay for cell proliferation (CYQUANT). The class given is cell-based. To be noted: Fibroblast, 72 hours, n=4 replicate experiments, FIG. 6. Here is the method: Fibroblasts at 70-90% confluency are trypsinized, replated at 600 cells/well in media in 96-well plates and allowed to attachment overnight. […] Each drug concentration is tested in triplicate wells.
To terminate the assay, the media is removed by gentle aspiration. […] Plates are incubated at room temperature, protected from light for 3-5 minutes.

The structures appear in SMILES notation.

The IC50 is the concentration needed to halve the response being measured. Turning to `Cc1ccc(S(=O)(=O)/C=C/C#N)cc1` [Bay 11-7082], in the assay with THP-1 cells, the concentration for half-maximal inhibition (IC50) came to 810 nM.
The compound `O=C1c2c(O)ccc(O)c2C(=O)c2c(NCCNCCO)ccc(NCCNCCO)c21` [Mitoxantrone, 9,10-Anthracenedione, 1,4-dihydroxy-5,8-bis[[2-[(2-hydroxyethyl)amino]ethyl]amino]-] had an IC50 in the assay with human fibroblasts of 20 nM.

These data come from patent US9326934B2, “Drug delivery from rapid gelling polymer composition” (Angiotech International AG, priority 2002, dated 2016).
